Reference: patent US12516080B2, “Remdesivir and remdesivir analogs, solutions, and nanoparticle, liposomal, and microparticle compositions for treating viral infections” (priority 2020, dated 2026)
Where two headings read alike, the source gives them in different places.

How the values were obtained:
[1] = In-vitro plasma stability, statements over human, hamster, and mouse plasma; format: in vitro ADME; conditions: different plasmas
Protocol: (§1) For nucleoside triphosphate analysis, LC-MS/MS was performed by ion-pairing chromatography using LC 20AD UFLC (Shimadzu, Japan) couple with an API 5500 (AB Sciex, USA). The separation was achieved on a 50×2.1 mm Agilent 3.5 μm C18 column. The mobile phase consisted of 3 mM ammonium formate with 10 mM dimethylhexylamine in water (mobile phase A), and 0.1% formic Acid in ACN (mobile phase B). A multi-stage linear gradient initiated with 2% B for 1 min, increased to 95% B in 2 min and maintained with 95% B for 1 min at a flow rate of 0.4 mL/min. Detection was performed on negative ion mode and multiple reaction monitoring modes.
(§2) Remdesivir, analogs and their metabolites alanine metabolite and Nuc were analyzed on an X500R QTOF System (AB Sciex, USA). Chromatographic separation was obtained on a 50×2.1 mm Agilent 3.5 μm C18 column using constant flow rate of 0.6 mL/min. The gradient mobile phase consisted of 0.1% formic acid in water (mobile phase A) and 0.1% formic acid acetonitrile (mobile phase B), running from 5% B to 95% B within 3 min and then maintaining 95% B for 1 min. The eluent was introduced into quadrupole time-of-flight mass spectrometry by electrospray ionization (ESI) operated in positive modes.
(§3) All the analytes were quantified using 10-point standard curves ranging from 5 to 5000 ng/mL.
(§4) To test the in-vitro plasma stability, 5 ul of […] test compound (remdesivir, MMT4-70, MMT4-98, MMT5-1) was added to 495 ul human, hamster, and mouse plasma, respectively. The structures of MMT4-70, MMT4-98, MMT5-1 are shown below. Aliquot of 40 μL was pipetted from the reaction solution and stopped by the addition of 160 μL cold acetonitrile at different sampling time (0, 10 min, 30 min, 60 min and 120 min). The incubation solution was centrifuged at 3500 rpm for 10 minutes to precipitate protein. The supernatant was used for LC/MS/MS analysis.

[2] = In-vitro plasma stability, mouse plasma; format: in vitro ADME; conditions: compared with remdesivir
Protocol: as §1, §2, §3, §4

[3] = In-vitro plasma stability, human plasma; format: in vitro ADME
Protocol: as §1, §2
All the analytes were quantified using 10-point standard curves ranging from 5 to 5000 ng/mL. […]

[4] = Short-time PK test and initial tissue targeting (plasma, blood, lung); format: in vivo; conditions: hamsters, i.v. 10 mg/Kg
Protocol: as §1, §2, §3
Short-time PK test was used to compare different compounds. Five remdesivir analogs (MMT4-70, MMT4-98, MMT5-1, MMT5-14, and MMT5-15) were compared to remdesivir. The structures of MMT5-14 and MMT5-15 are shown below. Albumin nanocomplexes of the remdesivir analogs were made according to the following procedure: organic phase was prepared by dissolving the synthesized compounds (20 mg) into chloroform (1 ml). 20 ml of marketed HSA solution (5%) was then mixed with organic phase and dispersed vigorously by a rotor-stator homogenizer (Ultra-Turrax T25, 8K rpm-12K rpm, 5 min) to generate a milk-like emulsion. The emulsion was then processed by a high-pressure homogenizer (Nano DeBEE) with the parameters set as pressure=15,000 psi-20,000 psi, condensation temp=5° C., cycles=6. Remaining organic solvent in the product was removed by a rotatory evaporator. The final nano-suspension was filtered with 0.22 μm membrane and freeze dried (primary drying temp=−5° C. for 30 h and secondary drying temp=30° C. for 6 h). The vials were filled with nitrogen before sealing and stored at −20° C.
The formulations and remdesivir (marketed formulation) were i.v. administered to catheterized hamsters with dose of 10 mg/Kg. Each group had two hamsters. At different time points (0.25 hr, 1 hr, 2 hr and 4 hr), plasma was collected for future LC-MS analysis. At 4 hr time point, the hamsters were euthanized and blood and lung were collected for future LC-MS analysis.

[5] = Tissue targeting of formulations (concentration-time profiles and AUC in tissues); format: in vivo; conditions: hamsters, i.v. 10 mg/Kg; for parent compound concentration through all tissues: 0.5-24 hr, short time points
Protocol: as §1, §2, §3
Besides nano formulation, a cyclodextrin-based formulation was also prepared for MMT5-14. Briefly, 2% cremophor and 2% ethanol was added to dissolve the MMT5-14, followed by mixing with 20% SBE-CD. Two formulated MMT5-14 compounds together with remdesivir (marketed formulation) were i.v. administered to catheterized hamsters with dose as 10 mg/Kg. Each group has two hamsters. At different time points (0.5 hr, 1 hr, 4 hr, 7 hr and 24 hr), the hamsters were euthanized and samples including plasma, blood, blood vessel, heart, intestine, kidney, lung, lymph node, spleen, trachea, and others were collected for future LC-MS analysis.

[6] = tested on: COVID-19 virus; assay: In vitro anti-COVID-19 virus activity of remdesivir (literature); format: cell-based, SARS-CoV-2; conditions: assuming intracellular Nuc-TP accumulates more than 10-fold to extracellular remdesivir
[7] = cited from earlier work
[8] = marmosets, cited from earlier work
[9] = tested on: human cells; conditions: in vitro metabolism; cited from earlier work
[10] = tested on: Calu-3 cells; assay: Cellular uptake of formulations, Calu-3 cells; format: cell-based; conditions: 10 μM
[11] = tested on: B24 cells; conditions: cited from earlier work
[12] = mice, cited from earlier work
[13] = tested on: PBMC, monocytes, Hela, microphage, and HUVEC; conditions: multiple human and rhesus monkey cells; cited from earlier work
[14] = tested on: AMJ2-C11 cells; assay: Cellular uptake of formulations, AMJ2-C11 cells; format: cell-based; conditions: 10 μM
[15] = tested on: THP-1 cells; assay: Cellular uptake of formulations, THP-1 cells; format: cell-based; conditions: 10 μM

Structure (SMILES): CCCCCCCCCCCCOC(=O)[C@H](C)NP(=O)(OC[C@H]1O[C@@H](c2ccc3c(N)ncnn23)[C@H](O)[C@@H]1O)Oc1ccccc1 (stereo partly drawn) [MMT4-70]
- overall stability compared with remdesivir [1]: more stable than remdesivir
- stability taking account of ALA generation [2]: similar/better stability

Structure (SMILES): CCCCCCCCCCCCOC(=O)[C@H](C)NP(=O)(OC[C@H]1O[C@@H](c2ccc3c(N)ncnn23)[C@H](O)[C@@H]1O)Oc1cccc2ccccc12 (stereo partly drawn) [MMT4-98]
- overall stability compared with remdesivir [1]: more stable than remdesivir
- stability taking account of ALA generation [2]: similar/better stability

Structure (SMILES): C[C@H](NP(=O)(OC[C@H]1O[C@@H](c2ccc3c(N)ncnn23)[C@H](O)[C@@H]1O)Oc1cccc2ccccc12)C(=O)OCc1ccccc1 (stereo partly drawn) [MMT5-1]
- stability ranking in human plasma [3]: behaved best
- overall stability compared with remdesivir [1]: more stable than remdesivir
- stability taking account of ALA generation [2]: similar/better stability

Structure (SMILES): CCCCCC/C=C\C/C=C\CCCCCCCCOC(=O)[C@H](C)NP(=O)(OC[C@H]1O[C@@H](c2ccc3c(N)ncnn23)[C@H](O)[C@@H]1O)Oc1ccccc1 (stereo partly drawn) [MMT5-14]
- stability and concentration in blood and lung tissue (reason for selection) [4]: balanced stability and high concentration in blood and lung tissue
- ALA metabolite concentration in tissues compared with remdesivir [5]: higher
- parent compound concentration through all tissues [5]: much higher
- AUC of ALA compared with remdesivir ([5]; all analyzed tissues): higher AUCs
- AUC of the parent compound compared with remdesivir ([5]; all analyzed tissues): higher AUCs
- parent compound, MMT5-14 versus Nano-MMT5-14 groups ([5]; blood vessel, kidney, and trachea): higher
- active metabolite NTP accumulation ([5]; blood, lung, and spleen): behaved better
- parent compound, MMT5-14 versus Nano-MMT5-14 groups, most tissues ([5]; most tissues): No significance

Structure (SMILES): N#C[C@@]1(c2ccc3c(N)ncnn23)O[C@H](COP(=O)(O)OP(=O)(O)OP(=O)(O)O)[C@@H](O)[C@H]1O [Nuc-TP]
- EC50 ([6]; read-out: EC50 of intracellular Nuc-TP against COVID-19 virus): > 7.7 µM
- EC90 ([6]; read-out: EC90 of intracellular Nuc-TP against COVID-19 virus): > 17.6 µM

Structure (SMILES): CCC(CC)COC(=O)[C@H](C)N[P@](=O)(OC[C@H]1O[C@@](C#N)(c2ccc3c(N)ncnn23)[C@H](O)[C@@H]1O)Oc1ccccc1 [remdesivir, Remdesivir]
- Nuc-TP concentration in PBMC ([7]; blood cells such as PBMC): 30-40 PM
- concentration of Nuc-TP in the lung ([7]; monkey, 10 mg/kg remdesivir): 800 to 1500 nM
- concentration of remdesivir in the lung ([7]; monkey, 10 mg/kg): did not achieve measurable concentration
- plasma nucleoside monophosphate (Nuc-MP) concentration ([7]; monkey, i.v. 10 mg/kg remdesivir, for 12-24 hrs): 0.5 to 1 µM
- remdesivir plasma concentration in 30 min ([7]; monkey, i.v. 10 mg/kg, 30 min): below 0.5 μM
- remdesivir plasma concentration ([7]; monkey, i.v. 10 mg/kg, initial): several micromolar
- concentration of Nuc-TP in the lung ([8]; i.v. bolus 10 mg/kg remdesivir): 800 to 1500 nM
- remdesivir in the lungs ([8]; i.v. bolus 10 mg/kg): not detectable
- other metabolites share [9]: 45%
- remdesivir converted into Nuc-TP [9]: approximately 55%
- alanine metabolite concentration in cells [10]: higher concentrations
- generation of NTP in cells [10]: higher generation
- intracellular Nuc-TP accumulation relative to extracellular remdesivir [11]: more than 3 fold
- concentration of Nuc-TP in the lung ([12]; 25-50 mg/kg remdesivir): ~3000 nM
- concentration of remdesivir in the lung ([12]; 25-50 mg/kg): did not achieve measurable concentration
- intracellular Nuc-TP versus extracellular concentration of remdesivir [13]: 25-100 folds
- alanine metabolite concentration in cells [14]: higher concentrations
- generation of NTP in cells [14]: higher generation
- stability in plasma (plasma concentration change) ([4]; 0.25-4 hr): quickly metabolized
- ALA concentration in plasma ([4]; short time points): High concentration
- NUC concentration in plasma ([4]; short time points): High concentration
- parent compound concentration through all tissues [5]: quickly metabolized
- active metabolite NTP accumulation ([5]; blood vessel, heart, and lymph node): better accumulation
- NUC concentration in tissues ([5]; several tissues like heart and trachea): high concentration
- alanine metabolite concentration in cells [15]: higher concentrations
